From article PMC6399351, “Cationic Intrinsically Disordered Antimicrobial Peptides (CIDAMPs) Represent a New Paradigm of Innate Defense with a Potential for Novel Anti-Infectives” (Scientific Reports, 2019)
In brackets after ≈: the same amount, converted by molar mass. Several values for one entry are separate records, joined by “and”; a condition that tells them apart may be missing. Identical values can stand only once. Like-named read-outs stand apart in the source and are kept apart here. Peptide text beside a SMILES is read from it. * marks the point of attachment. Palmitoyl = CCCCCCCCCCCCCCCC(=O)*

Experiments:
P. aeruginosa ATCC 10145 = conditions: CFU assay, 10 mM NaP
[1] = test system: Propionibacterium acnes ATCC 6919; assay: CFU assay of antimicrobial activity; format: cell-based; conditions: 10 mM NaP
Protocol: (§1) All purified peptides and recombinant proteins were applied using a colony forming unit (CFU) assay in different media. Bacteria were grown to early log-phase in BHI, washed either with 10 mM Na-P, pH 7.4/1% TSB or pH 5.5/1% TSB, or pH 5.5 without TSB or BHI, and adjusted to a concentration of 10^4–10^5 colony forming units (CFU)/ml. For cell number control, 100 µl aliquots were diluted 1:10, 1:100 and 1:1000 and plated in duplicates on BHI agar plates. To 100 µl aliquots of the bacteria, suspended in the respective medium (10 mM Na-P buffer pH 7,0–7,4/ 1% (w/v) TSB; 10 mM Na-P buffer pH 5,5/ 1% (w/v) TSB; 10 mM Na-P buffer pH 7,0–7,4/ 1% (w/v) TSB pH 7,0–7,4/ 0,25% (w/v) glucose; 10 mM Na-P buffer pH 5,5/ 0,25% (w/v) glucose, respectively), 10 µl of a solution of the peptide or protein (two-fold dilutions, from 300 µg/ml or 150 µg/ml down to 19 ng/ml), dissolved in 0.01% (v/v) acetic acid, were added.
(§2) Then bacteria were incubated for 2 h at ambient temperature, if not otherwise stated. 10 µl of 0.01% (v/v) acetic acid, added to 100 µl aliquots of the bacteria in the respective medium, served as negative control. From each test, 1:10 and 1:100 dilutions were generated and plated as duplicates of 100 µl aliquots on BHI agar plates. After 16 h incubation at 37 °C, CFU were counted using a colony counter (Bio Kobe, Japan) and expressed as mean of the duplicate estimation to achieve a complete dose-response curve. All experiments were performed at serial dilutions in a concentration range of 100 µg/mL −25 ng/mL for recombinant HRNR fragments and 300 or 150 µg/mL–19 ng/mL for synthetic peptides.

[2] = test system: Staphylococcus epidermidis ATCC 14990; assay: CFU assay of antimicrobial activity; format: cell-based; conditions: 10 mM NaP
Protocol: as §1, §2

[3] = test system: Salmonella typhimurium ATCC 13311; assay: CFU assay of antimicrobial activity; format: cell-based; conditions: 10 mM NaP, pH 7.3, 1% TSB
Protocol: as §1, §2

S. aureus ATCC 6538 = conditions: CFU assay
[4] = test system: Cryptococcus neoformans ATCC 208821; assay: CO-ADD MIC, antifungal assay (CLSI); format: cell-based; conditions: Yeast Nitrogen Base broth, 24 h 35 °C, by CO-ADD
Protocol: (§3) Fungi strains were cultured for 3 days on Yeast Extract-Peptone Dextrose (YPD) agar at 30 °C. A yeast suspension of 1 × 10^6 to 5 × 10^6 cells/mL (as determined by OD530) was prepared from five colonies. These stock suspensions were diluted with Yeast Nitrogen Base (YNB) broth to a final concentration of 2.5 × 10^3 CFU/mL. […] Plates were covered and incubated at 35 °C for 24 h without shaking.

[5] = test system: Candida albicans ATCC 90028; assay: CO-ADD MIC, antifungal assay (CLSI); format: cell-based; conditions: Yeast Nitrogen Base broth, 24 h 35 °C, by CO-ADD
Protocol: as §3

[6] = test system: Staphylococcus aureus ATCC 43300; conditions: MRSA; CLSI, Mueller–Hinton broth, 5 × 10^5 CFU/mL, 18 h 37 °C, by CO-ADD
E. coli ATCC 11775 = assay: CFU assay of antimicrobial activity; format: cell-based, Escherichia coli; conditions: 10 mM NaP
Outline: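 Early log-phase bacteria grown in BHI were exposed at 10^4–10^5 CFU/ml for 2 h at ambient temperature. Two-fold serial dilutions spanned 300 or 150 µg/mL–19 ng/mL (synthetic peptides) or 100 µg/mL–25 ng/mL (recombinant HRNR fragments), and colonies were counted after 16 h at 37 °C.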

E. coli ATCC 25922 = assay: CO-ADD MIC, broth microdilution (CLSI); format: cell-based, Escherichia coli; conditions: Mueller–Hinton broth, 5 × 10^5 CFU/mL, 18 h 37 °C, by CO-ADD
Description: They were defined as the lowest peptide
Further details of the screening

[7] = test system: Clostridium perfringens ATCC 13124; conditions: CFU assay, 10 mM NaP

Compound: CCCCCCCCCCCCCCCC(=O)NCC(=O)N[C@@H](CCCNC(=N)N)C(=O)N[C@@H](CCCNC(=N)N)C(=O)NCC(=O)NCC(=O)N[C@@H](CCCNC(=N)N)C(=O)NCC(=O)NCC(=O)N[C@@H](CCCNC(=N)N)C(=O)NCC(=O)N[C@@H](CCCNC(=N)N)C(=O)NCC(=O)N[C@@H](CCCNC(=N)N)C(=O)O [Pal-GR13] (Palmitoyl-GRRGGRGGRGRGR-OH)
- LD90 (P. aeruginosa ATCC 10145; pH 5.5, 0.25% glucose): 0.075 µg/mL
- LD90 (P. aeruginosa ATCC 10145; pH 7.3, 1% TSB): 0.3 µg/mL
- LD90 ([1]; pH 5.5, 0.25% glucose): 0.3 µg/mL
- LD90 ([1]; pH 7.3, 0.25% glucose): 0.59 µg/mL
- LD90 ([1]; pH 7.3, 1% TSB): 1.18 µg/mL
- LD90 ([2]; pH 5.5, 0.25% glucose): 9.38 µg/mL
- LD90 ([2]; pH 7.3, 1% TSB): 0.59 µg/mL
- LD90 [3]: 2.35 µg/mL
- LD90 (S. aureus ATCC 6538; 10 mM NaP, pH 5.5, 0.25% glucose): 0.075 µg/mL and 0.15 µg/mL
- LD90 (S. aureus ATCC 6538; 10 mM NaP, pH 5.5, 1% TSB): 0.3 µg/mL
- LD90 (S. aureus ATCC 6538; 10 mM NaP, pH 7.3, 1% TSB): 0.3 µg/mL
- LD90 (S. aureus ATCC 6538; value in molar units): 47 nM
- Minimal inhibitory concentration (MIC) [4]: 0.25 µg/mL (≈ 0.157 µM)
- Minimal inhibitory concentration (MIC) [5]: 4 µg/mL (≈ 2.51 µM)
- Minimal inhibitory concentration (MIC) [6]: 0.25 µg/mL (≈ 0.157 µM)
- LD90 (E. coli ATCC 11775; pH 5.5, 0.25% glucose): 0.15 µg/mL
- LD90 (E. coli ATCC 11775; pH 7.3, 1% TSB): 1.18 µg/mL
- Minimal inhibitory concentration (MIC) (E. coli ATCC 25922): 4 µg/mL (≈ 2.51 µM)
- LD90 ([7]; pH 5.5, 0.25% glucose): 37.5 µg/mL
- LD90 ([7]; pH 7.3, 0.25% glucose): 4.7 µg/mL
- LD90 ([7]; pH 7.3, 1% TSB): 18.75 µg/mL
